For assay [1], the target named is SARS-CoV-2 3CLpro (Severe acute respiratory syndrome coronavirus 2, UniProt P0DTD1). Put plainly: biochemical. The note with it: inhibition of SARS-CoV-2 3CLpro; 15 nM 3CLpro, 25 μM fluorogenic substrate, 37° C.; read-out: Inhibitory Activity (IC50).
Assay [2] concerns SARS-CoV-2. Kind of assay: Anti-SARS-CoV-2 activity in A549 cells expressing the human ACE2 receptor (inhibition of SARS-CoV-2 replication). To be noted: for EC50: Severe acute respiratory syndrome coronavirus 2, A549-ACE2, 24 h, read-out: Antiviral Activity (EC50); for antiviral potency in A549 cells in comparison with compound Ref-2: versus Ref-2 (FIG. 7). The assay is classed as cell-based.

Here are results for 18 compounds from patent US20260315452A1, “PROTEASE INHIBITORS AND USES THEREOF” (priority 2023, published 2026).

Counter-ions that a name gives are not always drawn. Bounds are passed on as bounds.

As for `O=C(NC1CC(F)(F)C1)c1cc(Cl)cc(C(F)(F)F)c1N[C@@H]1COCC[C@@H]1NC(=O)c1cncc2ccccc12` [Compound 145, N-((3S, 4S)-3-((4-chloro-2-((3,3-difluorocyclobutyl)carbamoyl)-6-(trifluoromethyl)phenyl)amino)tetrahydro-2H-pyran-4-yl)isoquinoline-4-carboxamide], in assay [1], the IC50 (as a rule, the concentration that inhibits the measured activity by half) is 100 to 1000 nM. Besides, the EC50 (commonly the midpoint of the concentration-response curve) in assay [2] was in the range of 100 to 1000 nM.
Take `CC(C)C(Nc1c(C(=O)NC2CC(F)(F)C2)cc(Br)cc1[N+](=O)[O-])C1CN(C(=O)c2cncc3ccccc23)C1` (stereo not shown) [Compound 116, 5-bromo-N-(3,3-difluorocyclobutyl)-2-((1-(1-(isoquinoline-4-carbonyl)azetidin-3-yl)-2-methylpropyl)amino)-3-nitrobenzamide]: the IC50 in assay [1] lay in the range of 100 to 1000 nM. Moreover, the EC50 in assay [2] was in the range of 100 to 1000 nM.
For the compound `O=C(N[C@H]1CCOC1)c1cc(Br)cc([N+](=O)[O-])c1N[C@H]1CN(C(=O)c2cncc3ccccc23)CCC1(F)F` [Compound 149, 5-bromo-2-(((S)-4,4-difluoro-1-(isoquinoline-4-carbonyl)piperidin-3-yl)amino)-3-nitro-N-((S)-tetrahydrofuran-3-yl)benzamide], the IC50 in assay [1] is below 100 nM. Also, in assay [2], the EC50 was below 100 nM.
Regarding `O=C(NC1CC(F)(F)C1)c1cc(Br)cc([N+](=O)[O-])c1N[C@H]1CN(C(=O)c2cncc3ccccc23)CCC1(F)F` [Compound 33, (S)-5-bromo-2-((4,4-difluoro-1-(isoquinoline-4-carbonyl)piperidin-3-yl)amino)-N-(3,3-difluorocyclobutyl)-3-nitrobenzamide], the half-inhibitory concentration (IC50) in assay [1] is below 100 nM. Moreover, in assay [2], the EC50 was below 100 nM.
For the compound `C=CCNC(=O)c1cc(Br)cc([N+](=O)[O-])c1N[C@H]1CN(C(=O)c2cncc3ccccc23)CCC1(F)F` [Compound 156, (S)-N-ally1-5-bromo-2-((4,4-difluoro-1-(isoquinoline-4-carbonyl)piperidin-3-yl)amino)-3-nitrobenzamide], the IC50 in assay [1] is below 100 nM. In assay [2], the EC50 was below 100 nM.
As for `O=C(NC1CC(F)(F)C1)c1cc(Br)cc([N+](=O)[O-])c1N[C@@H]1COCC[C@@H]1NC(=O)c1cncc2ccccc12` [Compound 126, N-((3S, 4S)-3-((4-bromo-2-((3,3-difluorocyclobutyl)carbamoyl)-6-nitrophenyl)amino)tetrahydro-2H-pyran-4-yl)isoquinoline-4-carboxamide], the IC50 in assay [1] is below 100 nM. Moreover, the EC50 in assay [2] was below 100 nM.
As to `CNC(=O)c1cc(Br)cc([N+](=O)[O-])c1N[C@@H]1CN(C)CC[C@@H]1NC(=O)c1cncc2ccccc12` [Compound 89, N-((3R,4S)-3-((4-bromo-2-(methylcarbamoyl)-6-nitrophenyl)amino)-1-methylpiperidin-4-yl)isoquinoline-4-carboxamide], the IC50 in assay [1] was in the range of 1000 to 10000 nM. Besides, in assay [2], the EC50 was in the range of 1000 to 10000 nM.
For the compound `C=CCNC(=O)c1cc(Cl)cc([N+](=O)[O-])c1N[C@H]1CN(C(=O)c2cncc3ccccc23)CCC1(F)F` [Compound 42, (S)-N-allyl-5-chloro-2-((4,4-difluoro-1-(isoquinoline-4-carbonyl)piperidin-3-yl)amino)-3-nitrobenzamide], the IC50 in assay [1] is below 100 nM. In assay [2], the EC50 was below 100 nM.
As to `CNC(=O)c1cc(Cl)cc(C(F)(F)F)c1N[C@H]1CN(C(=O)c2cncc3ccccc23)CCC1(F)F` [Compound 84, (S)-5-chloro-2-((4,4-difluoro-1-(isoquinoline-4-carbonyl)piperidin-3-yl)amino)-N-methyl-3-(trifluoromethyl)benzamide], the half-inhibitory concentration (IC50) in assay [1] was below 100 nM. Besides, the EC50 in assay [2] was below 100 nM.
Consider `CN1CC[C@@H](NC(=O)c2cc(Cl)cc([N+](=O)[O-])c2N[C@H]2CN(C(=O)c3cncc4ccccc34)CCC2(F)F)C1` [Compound 93, 5-chloro-2-(((S)-4,4-difluoro-1-(isoquinoline-4-carbonyl)piperidin-3-yl)amino)-N-(1-methylpyrrolidin-3-yl)-3-nitrobenzamide hydrochloride], for which the IC50 in assay [1] is below 100 nM. Further, the EC50 in assay [2] was below 100 nM.
As to `O=C(c1cc(Cl)cc([N+](=O)[O-])c1N[C@H]1CN(C(=O)c2cncc3ccccc23)CCC1(F)F)N1CC(O)C1` [Compound 43, (S)-(5-chloro-2-((4,4-difluoro-1-(isoquinoline-4-carbonyl)piperidin-3-yl)amino)-3-nitrophenyl)(3-hydroxyazetidin-1-yl)methanone], the IC50 in assay [1] is below 100 nM. Besides, the “antiviral potency in A549 cells in comparison with compound Ref-2” value in assay [2] was “better antiviral potency”.
Consider `O=C(N[C@@H]1CCOC1)c1cc(Br)cc([N+](=O)[O-])c1N[C@H]1CN(C(=O)c2cncc3ccccc23)CCC1(F)F` [Compound 37, 5-bromo-2-(((S)-4,4-difluoro-1-(isoquinoline-4-carbonyl)piperidin-3-yl)amino)-3-nitro-N-((R)-tetrahydrofuran-3-yl)benzamide], for which the IC50 in assay [1] is below 100 nM. Moreover, in assay [2], the “antiviral potency in A549 cells in comparison with compound Ref-2” value is listed as “better antiviral potency” and the EC50 was below 100 nM.
On to `CNC(=O)c1cc(Br)cc([N+](=O)[O-])c1N[C@@H]1CCCN(C(=O)c2cncc3ccccc23)C1` [Compound 75, (R)-5-bromo-2-((1-(isoquinoline-4-carbonyl)piperidin-3-yl)amino)-N-methyl-3-nitrobenzamide], for which the IC50 in assay [1] is below 100 nM. For the same compound, in assay [2], the EC50 is below 100 nM.
In the case of `CNC(=O)c1cc(Br)cc([N+](=O)[O-])c1NC(C(C)C)C1CN(C(=O)c2cncc3ccccc23)C1` (stereo not shown) [Compound 99, 5-bromo-2-((1-(1-(isoquinoline-4-carbonyl)azetidin-3-yl)-2-methylpropyl)amino)-N-methyl-3-nitrobenzamide], the IC50 in assay [1] fell in the range of 100 to 1000 nM. Also, the EC50 in assay [2] lay in the range of 100 to 1000 nM.
As for `O=C(NC1CC(F)(F)C1)c1cc(Cl)cc([N+](=O)[O-])c1N[C@H]1CN(C(=O)c2cncc3ccccc23)CCC1(F)F` [Compound 158, (S)-5-chloro-2-((4,4-difluoro-1-(isoquinoline-4-carbonyl)piperidin-3-yl)amino)-N-(3,3-difluorocyclobutyl)-3-nitrobenzamide], the IC50 in assay [1] was below 100 nM. Also, the EC50 in assay [2] is below 100 nM.
As to `CNC(=O)c1cc(Br)cc([N+](=O)[O-])c1N[C@@H]1CCCC[C@@H]1NC(=O)c1cccnc1` [Compound 1, N-((1S, 2R)-2-((4-bromo-2-(methylcarbamoyl)-6-nitrophenyl)amino)cyclohexyl)nicotinamide], the concentration for half-maximal inhibition (IC50) in assay [1] is 100 to 1000 nM. Moreover, the EC50 in assay [2] was in the range of 1000 to 10000 nM.
Taken in the same sequence, the figures for `CC1(NC(=O)c2cc(Br)cc([N+](=O)[O-])c2N[C@H]2CN(C(=O)c3cncc4ccccc34)CCC2(F)F)CC1` [Compound 157, (S)-5-bromo-2-((4,4-difluoro-1-(isoquinoline-4-carbonyl)piperidin-3-yl)amino)-N-(1-methylcyclopropyl)-3-nitrobenzamide] were below 100 nM and below 100 nM.
The corresponding values for `CC(C)(O)CNC(=O)c1cc(Cl)cc([N+](=O)[O-])c1N[C@H]1CN(C(=O)c2cncc3ccccc23)CCC1(F)F` [Compound 40, (S)-5-chloro-2-((4,4-difluoro-1-(isoquinoline-4-carbonyl)piperidin-3-yl)amino)-N-(2-hydroxy-2-methylpropyl)-3-nitrobenzamide] are below 100 nM and below 100 nM.
